Measured values from patent US8003610B2, “Bradykinin B2 receptor antagonist peptide from amphibian skin” (priority 2003, dated 2011).
Square brackets hold non-standard residues; d marks the D form. Ends that are not written are not given here. pGlu = O=C1CC[C@@H](C(=O)O)N1

Columns and labels:
[1] = system: human microvascular endothelial cell line (HMEC-1); experiment: proliferation of endothelial cell line; assay type: cell-based; details: FIG. 11
Text: FIG. 11 is a graph comparing the effect of control (▪), kinestsin (Q-9-R-(-7) (▴) and fumagillin (▾) on the proliferation of the human microvascular endothelial cell line (HMEC-1).

[2] = system: human microvascular endothelial cells (HMEC-1); experiment: endothelial cell migration into 1 cm wound in cell monolayer; assay type: cell-based
Protocol: FIG. 9 is a graph comparing the ability of kinestatin (▪) and fumagillin (▾) to inhibit the migration of human microvascular endothelial cells (HMEC-1) into a wound in a dose- and time-dependent manner
FIG. 10 is a time response curve showing the delay in complete closure of endothelial cell 1 cm wounds in the presence of kinestatin (▪) and non-treated control cells (▴).
Expt. […] Kinestatin prolonged wound closure time by 100% from 7 h (control) to 14 h (treatment) (FIG. 10).

[3] = system: endothelial tube structures on Matrigel matrix plates; experiment: Matrigel tube formation assay; assay type: cell-based; details: FIG. 8
Text: FIG. 8 is a graph comparing the ability of kinestatin (▪) and fumagillin (▴) to inhibit the formation of endothelial tube structures on Matrigel matrix plates.

[4] = system: recombinantly-expressed receptor (of ornithokinin); details: cited from earlier work
B1-receptor = target: T1, B1-receptor (Oryctolagus cuniculus, UniProt P48748); details: cited from earlier work
T1 construct: in B1-receptor-rich preparations, such as the rabbit aorta; host or cells: rabbit aorta tissue preparation
T1 sequence (P48748 1-352): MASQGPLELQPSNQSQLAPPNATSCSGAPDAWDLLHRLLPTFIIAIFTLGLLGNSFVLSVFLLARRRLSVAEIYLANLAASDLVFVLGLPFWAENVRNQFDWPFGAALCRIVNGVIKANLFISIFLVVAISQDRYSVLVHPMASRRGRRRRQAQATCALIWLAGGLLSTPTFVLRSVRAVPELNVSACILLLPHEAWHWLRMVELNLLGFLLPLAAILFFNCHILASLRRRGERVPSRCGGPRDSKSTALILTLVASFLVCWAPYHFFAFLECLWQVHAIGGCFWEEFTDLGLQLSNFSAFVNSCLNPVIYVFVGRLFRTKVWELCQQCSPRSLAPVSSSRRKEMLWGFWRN

[5] = target: autologous receptor (of ornithokinin) cloned from chicken; details: (Tyr^0)-radioiodinated ornithokinin as competing ligand; read-out: affinity; cited from earlier work
bradykinin B2 receptors = target: T2, bradykinin B2 receptors (Rattus norvegicus, UniProt P25023); experiment: inhibition of bradykinin-induced relaxation in phenylephrine pre-constricted rat tail artery preparation
T2 construct: phenylephrine pre-constricted rat tail artery preparation; from tissue; host or cells: rat tail artery (arterial smooth muscle preparation)
T2 sequence (P25023 1-396): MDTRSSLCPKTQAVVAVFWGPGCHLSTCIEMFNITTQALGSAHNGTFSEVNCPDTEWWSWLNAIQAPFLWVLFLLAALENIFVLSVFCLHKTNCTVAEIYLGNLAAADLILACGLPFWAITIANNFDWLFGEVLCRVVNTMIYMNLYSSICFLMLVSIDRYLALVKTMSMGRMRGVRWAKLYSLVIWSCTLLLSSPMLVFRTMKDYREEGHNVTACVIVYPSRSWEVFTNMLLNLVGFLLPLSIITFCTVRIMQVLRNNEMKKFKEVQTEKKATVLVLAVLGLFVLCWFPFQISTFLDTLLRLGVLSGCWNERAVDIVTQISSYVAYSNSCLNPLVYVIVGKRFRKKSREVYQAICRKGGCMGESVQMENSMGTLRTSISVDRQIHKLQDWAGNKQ
Protocol: Male albino Wistar rats (200-250 g) were euthanised by asphyxiation followed by cervical dislocation. The tail artery was prepared as described previously (Chen T et al, Peptides. 2002; 23:1547-1555, Chen T et al, Eur. J. Biochem. 2002; 269:4693-4700, Hirst et al Br. J. Radiol. 1994; 67:795-799). After perfusion of arterial preparations with 1×10^−5M phenylephrine to obtain constriction plateaux, relative relaxation was recorded as described below following applications of reconstituted 100 μl aliquots of HPLC fraction samples (1-240) from B. maxima skin secretion. […] The preparations were perfused as before with phenylephrine (1×10^−5M) until constriction plateaux were obtained. Following this, combinations of phenylephrine (1×10^−5M) and reconstituted non-myoactive fractions were perfused through individual preparations for 20 min. Immediately after this, the perfusate was replaced by a combination of phenylephrine (1×10^−5M), bradykinin (1×10^−6M) and reconstituted individual fractions. Changes in arterial smooth muscle tone were measured by a pressure transducer system and the percentage relative relaxations induced by bradykinin in the presence of reconstituted fractions were calculated using the MacLab computer package.
Arterial smooth muscle preparations were prepared as described previously and treated with phenylephrine (1×10^−5M) until constriction plateaux were achieved. Following this a series of experiments were performed to address the pharmacological characterization of the novel peptide, kinestatin. 1) Separate dose response curves were constructed for bradykinin and kinestatin using concentrations of both peptides in the range of 10^−11 to 10^−5M. […] The preparations were prepared as described before. […] Following this, phenylephrine (1×10^−5M) was added to the antagonist solution and perfused for 10 min to develop contraction of the arterial smooth muscle. On obtaining stable plateaux of constriction, the perfusate was replaced by another containing phenylephrine, antagonist and bradykinin (1×10^−6M). During a 20 min perfusion period, changes in arterial pressure were recorded as described previously. In a second similar series of experiments, kinestatin (1×10^−8M) was added to each of the specific bradykinin receptor sub-type antagonist solutions prior to the procedure described above. Data were analysed by computer using Students t test available on the Graph Pad Prism™ programme.

[6] = system: rat tail artery smooth muscle; experiment: direct relaxation of phenylephrine pre-constricted rat tail artery preparation; details: synthetic replicate, in the effective molar concentration range of bradykinin, FIG. 4A
Protocol: Male albino Wistar rats (200-250 g) were euthanised by asphyxiation followed by cervical dislocation. The tail artery was prepared as described previously (Chen T et al, Peptides. 2002; 23:1547-1555, Chen T et al, Eur. J. Biochem. 2002; 269:4693-4700, Hirst et al Br. J. Radiol. 1994; 67:795-799). After perfusion of arterial preparations with 1×10^−5M phenylephrine to obtain constriction plateaux, relative relaxation was recorded as described below following applications of reconstituted 100 μl aliquots of HPLC fraction samples (1-240) from B. maxima skin secretion. This was carried out to exclude those fractions (25) containing direct arterial smooth muscle relaxant activity. […] Changes in arterial smooth muscle tone were measured by a pressure transducer system and the percentage relative relaxations induced by bradykinin in the presence of reconstituted fractions were calculated using the MacLab computer package.
Arterial smooth muscle preparations were prepared as described previously and treated with phenylephrine (1×10^−5M) until constriction plateaux were achieved. […] 2) The effect of prior addition of a range of concentrations of kinestatin on the observed activity of subsequently added bradykinin at its maximally effective concentration (10^−6M) was determined. […] During a 20 min perfusion period, changes in arterial pressure were recorded as described previously. […]

Q: Which cell proliferation [1] does the source give for `CO[C@@H]1[C@H](OC(=O)/C=C/C=C/C=C/C=C/C(=O)O)CC[C@]2(CO2)[C@H]1[C@@]1(C)O[C@@H]1CC=C(C)C` [fumagillin, reference compound] here?
A: Its cell proliferation is “profound effects on inhibition of cell proliferation”.

Q: What about the “maximal inhibitory effect on migration” value ([2]; FIG. 9) of the same molecule?
A: Its value is “same maximal inhibitory effect”.

Q: And the “effect on tube formation” value [3]?
A: Its value is “inhibitory effect”.

Q: With “Arg-Arg-Pro-Hyp-Gly-Thi-Ser-Tic-Oic-Arg [HOE-140]” as the molecule, how does the function at receptor [4] read?
A: Its function at receptor is “partial agonist”.

Q: With “RPPGFSPLR [Leu^8-bradykinin, bradykinin analogue, found in pickerel frog skin]” as the molecule, how does the “antagonism of bradykinin and des-Arg^9 bradykinin” value (B1-receptor; B1-receptor-rich preparations, rabbit aorta) read?
A: The value was “potent antagonist”.

Q: And the bradykinin agonist activity (B1-receptor; previous pharmacological studies)?
A: Its bradykinin agonist activity is “devoid of bradykinin agonist activity”.

Q: Which Kd [5] does the source give for RPPGFTPLR [ornithokinin] here?
A: Its Kd is 4.7 nM.

Q: What does the source list for “pGlu-Ile-Pro-Gly-Leu-Gly-Pro-Leu-Arg.NH2 ([pGlu]IPGLGPLR-NH2; SMILES CC[C@H](C)[C@H](NC(=O)[C@@H]1CCC(=O)N1)C(=O)N1CCC[C@H]1C(=O)NCC(=O)N[C@@H](CC(C)C)C(=O)NCC(=O)N1CCC[C@H]1C(=O)N[C@@H](CC(C)C)C(=O)N[C@@H](CCCNC(=N)N)C(N)=O; listed as Bombina maxima) [kinestatin, bradykinin B2 receptor antagonist nonapeptide from skin secretion of Bombina maxima; synthetic replicate tested]”?
A: cell proliferation [1]: profound effects on inhibition of cell proliferation; potency as bradykinin antagonist relative to Leu^8 bradykinin (bradykinin B2 receptors): ~10 ×; inhibition of bradykinin-induced relaxation in HOE 140-treated preparations (bradykinin B2 receptors; kinestatin 1×10^−8M added, HOE 140 3×10^−7M, p=0.0015, n=6): significant inhibition; inhibition of bradykinin-induced relaxation in des Arg HOE 140-treated preparations (bradykinin B2 receptors; kinestatin 1×10^−8M added, des Arg HOE 140 3×10^−7M, p=0.033, n=6): significant inhibition; effect on bradykinin-induced relaxation dose response curve (bradykinin B2 receptors; kinestatin at 1×10^−8M, FIG. 4C): Virtual total abolition; maximally inhibitory concentration (bradykinin B2 receptors; prior addition, bradykinin dose response): 10^−8 M; receptor mediating the inhibition (bradykinin B2 receptors; rat tail arterial smooth muscle): antagonism at B2 receptors; block of maximal bradykinin relaxing activity (bradykinin B2 receptors; ten nanomolar kinestatin, one micromolar bradykinin): almost totally blocked; mechanism of inhibition (bradykinin B2 receptors; within this concentration range): non-competitive mechanism; maximal inhibitory effect on migration ([2]; FIG. 9): same maximal inhibitory effect; potency relative to fumagillin ([2]; FIG. 9): more potent on a molar basis; endothelial cell migration ([2]; time to half closure of 1 cm wide wound): inhibition in endothelial cell migration; wound closure time ([2]; treatment, FIG. 10): 14 h; prolongation of wound closure time ([2]; versus control, FIG. 10): 100%; myorelaxant activity [6]: devoid of myorelaxant activity; effect on tube formation [3]: inhibitory effect
